Assay results reported in patent publication US20130023553A1, “PEGYLATED OPIOIDS WITH LOW POTENTIAL FOR ABUSE AND SIDE EFFECTS” (Nektar Therapeutics, priority 2010, published 2013).
Entries after “also recorded” stand apart in the source; their conditions may differ.

Columns and labels:
Sprague-Dawley rats [1] = experiment: Abuse liability: progressive ratio test in rats trained to self-administer cocaine; assay type: in vivo; conditions: for reinforcing behavior, progressive ratio: all doses tested
Protocol: In the three-day rat substitution tests, rats trained to self-administer cocaine were exposed to saline or test article via intravenous bolus infusions for one hour sessions on three consecutive days.
The rate of self-administration is determined not only by reinforcing effects of drug but also by the direct effects of the drug on motor behavior. To measure reinforcing effects in a quantitative way, a procedure was utilized in which responding was determined by reinforcing effects uncontaminated with other drug effects. […] See, e.g., Griffiths R R, Brady J V, Bradford L D. Advances in Behavioral Pharmacology (Vol 2).
Under this schedule, the animal responds on the lever for delivery of test article. For each subsequent drug delivery the total number of responses emitted on the lever required for drug delivery was incremented upward using a logarithmic (base e) scale using the following equation:
Response requirement=5*e^(response increment*0.2)−5
The progressive “break point” is defined as the highest number of responses emitted by the animal to earn a single reinforcer delivery of drug or vehicle. This break point is used as a behavioral marker of how much work will be expended by an experimental subject to earn a single reinforcer delivery. The amount of work expended to earn a single reinforcer is used to compare the efficacy of drug deliveries with respect to the hedonic valence induced by the drug injection with the assumption that the subjective hedonic valence of a reinforcer determines its abuse liability.

Sprague-Dawley rats [2] = experiment: Abuse liability: three-day substitution test in rats trained to self-administer cocaine; conditions: i.v. self-administration
Male CD-1 mice = experiment: Assessment of CNS side effects in mice (Straub tail, muscle rigidity, pinna reflex)
Description: The objective of this study was to provide an approximation of the side effect profile of various oligomeric conjugates for comparison to the parent compounds by measuring various gross behavioral and physiological signs following administration of compound.
Additional evaluations included muscle rigidity and pinna reflex.
Male CD-1 mice from Charles River Laboratories, Raleigh, N.C., weighing from 16-18 grams were maintained on a regular light/dark cycle (lights on 0600-1800) with ad libitum food and water for 1 week before commencement of testing. N=2 per treatment condition, i.e., separate mice for each dose of each test article, injection was performed via a 25-gauge ⅝-inch needle on a 1-mL tuberculin syringe for the s.c. route and a 22-gauge stainless steel mouse feeding tube for the p.o. route (Becton, Dickinson & Co., Franklin Lakes, N.J.). Each treatment condition was divided about evenly between two observers. […] Test article was administered (s.c. or p.o., and the mouse was placed immediately in the observation chamber). One-half, 1, 2, and 3 hours later, the animal was observed undisturbed for gross signs such as locomotor ataxia, tremor, hyperactivity, hypoactivity, convulsions, hindlimb splay, and Straub tail, and then removed and assessed for muscle tone (normal, rigid, flaccid), pinna reflex (presence or absence), righting reflex (intact or lost), and placing (whether or not the forepaws are extended when the mouse is placed near a surface).
Each of the tables show the number of animals responding at each dose, where N=2. […] A bolded value indicates the lowest dose at which a response was detected.

[3] = Pharmacokinetics following intravenous (IV) dosing; assay type: in vivo, Sprague-Dawley rats; conditions: male, Sprague-Dawley, rat, plasma, hydroxycodone series, 1 mg/kg IV, Mean ± SD
Description: There were 3 rats/group. All animals were food fasted overnight. […] The predose sample was collected from the JVC.
Following the last collection point, the animals were euthanized.

human mu opioid receptor = target: T1, human mu opioid receptor (Homo sapiens, UniProt P35372); experiment: biochemical; assay type: binding; conditions: CHO-K1 membranes, [3H]DAMGO 6 nM; read-out: Ki, Mu opioid receptor
T1 construct: expressed in transfected cells; host or cells: CHO cells
T1 sequence (P35372 whole entry): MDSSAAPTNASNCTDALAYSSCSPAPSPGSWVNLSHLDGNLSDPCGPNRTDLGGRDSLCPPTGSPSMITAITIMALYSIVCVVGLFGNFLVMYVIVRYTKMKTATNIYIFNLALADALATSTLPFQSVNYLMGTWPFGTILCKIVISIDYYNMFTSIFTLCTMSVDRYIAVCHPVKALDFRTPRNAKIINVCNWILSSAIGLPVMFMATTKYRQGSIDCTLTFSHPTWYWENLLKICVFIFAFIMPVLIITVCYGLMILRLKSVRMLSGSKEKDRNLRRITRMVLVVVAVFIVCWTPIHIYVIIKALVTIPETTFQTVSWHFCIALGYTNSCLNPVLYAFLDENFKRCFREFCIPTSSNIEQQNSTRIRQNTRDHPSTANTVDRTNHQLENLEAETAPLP

mice = experiment: Oral dose giving maximal analgesia; assay type: in vivo
male (CD1) mice = experiment: Respiratory depression, whole body plethysmography with CO2 challenge; conditions: equianalgesic doses (100 mg/kg vs oxycodone 30 mg/kg, gavage)
Protocol: The animals were housed in SPF conditions. The animal housing facilities were maintained at 72°+/−2° F. with a light cycle of 12:12 hours (light:dark). Autoclaved rodent chow and water are provided ad libitum.
Approximate measurements of minute ventilation were carried out using Buxco unrestrained whole body plethysmographs (WBP). Digital computer aided analysis of the analog signal was used to report measurements of tidal volume, frequency of breathing, minute ventilation, inspiratory and expiratory times and flows as well as other derived measurements.
To more clearly delineate the effect of these test articles on respiratory depression, a hypercapnic ventilatory stimulus (CO2) was added to the animals' breathing air supply to stimulate ventilation.
Mice received the drug by gavage and then were placed in the WBP. […] The mouse remained in that atmosphere for 10 minutes, after which time the chamber was flushed with zero grade air for another 20 min to allow ventilation to return to baseline. The mouse was challenged again with 8% CO2 for 10 minutes. […] The last 2 minutes of each of the two conditions (Air or 8% CO2) was recorded and analyzed for the following respiratory parameters: minute ventilation, respiratory frequency, tidal volume, and time of inspiration/expiration for animals in each dose group.

[4] = listed as mPEG6-O-hydroxycodone

Question: For `COCCOCCOCCOCCOCCOCCOC1CCC2(O)C3Cc4ccc(OC)c5c4C2(CCN3C)C1O5` (stereo not drawn) [α-6-mPEG6-O-hydroxycodone, α-6-mPEG6-O-oxycodone], which “progressive ratio break point” value (Sprague-Dawley rats [1]; 1.0 mg/kg/injection) is on record?
Answer: 21

Question: What about the “reinforcing behavior, progressive ratio” value (Sprague-Dawley rats [1]) of the same molecule?
Answer: no reinforcing behavior was observed; also recorded: no reinforcing behaviour was exhibited

Question: What about the “reinforcing behavior, progressive ratio” value (Sprague-Dawley rats [1]; [4]) of the same molecule?
Answer: showed no reinforcing properties and behaved like saline

Question: And the “reinforcing behavior, three-day substitution” value (Sprague-Dawley rats [2])?
Answer: no reinforcing behavior was observed; also recorded: lack of reinforcing behavior

Question: What about the “reinforcing behavior, three-day substitution” value (Sprague-Dawley rats [2]; [4]) of the same molecule?
Answer: no behavioral evidence of positive reinforcement

Question: And the “Loss Pinna, fold difference relative to parent compound” value (Male CD-1 mice; PO, 1/2 responding)?
Answer: >>

Question: And the “Muscle Rigidity, fold difference relative to parent compound” value (Male CD-1 mice; PO, 1/2 responding)?
Answer: >100 fold

Question: And the “Straub Tail, fold difference relative to parent compound” value (Male CD-1 mice; PO, 1/2 responding)?
Answer: 100 fold

Question: What about the “Loss Pinna, fold difference relative to parent compound” value (Male CD-1 mice; PO, 2/2 responding) of the same molecule?
Answer: >>

Question: And the “Muscle Rigidity, fold difference relative to parent compound” value (Male CD-1 mice; PO, 2/2 responding)?
Answer: >30 fold

Question: And the “Straub Tail, fold difference relative to parent compound” value (Male CD-1 mice; PO, 2/2 responding)?
Answer: >100 fold

Question: What about the “Loss Pinna, fold difference relative to parent compound” value (Male CD-1 mice; SC, 1/2 responding) of the same molecule?
Answer: >30 fold

Question: And the “Muscle Rigidity, fold difference relative to parent compound” value (Male CD-1 mice; SC, 1/2 responding)?
Answer: 100 fold

Question: What about the “Straub Tail, fold difference relative to parent compound” value (Male CD-1 mice; SC, 1/2 responding) of the same molecule?
Answer: 100 fold

Question: What about the “Loss Pinna, fold difference relative to parent compound” value (Male CD-1 mice; SC, 2/2 responding) of the same molecule?
Answer: 33 fold

Question: What about the “Muscle Rigidity, fold difference relative to parent compound” value (Male CD-1 mice; SC, 2/2 responding) of the same molecule?
Answer: 100 fold

Question: What about the “Straub Tail, fold difference (reduction in CNS activity) relative to parent compound” value (Male CD-1 mice; SC, 2/2 responding) of the same molecule?
Answer: 100 fold

Question: What about the “decrease in CNS activity relative to parent opioid” value (Male CD-1 mice; male, CD-1, mouse, in vivo, oral) of the same molecule?
Answer: 10-100 fold

Question: What about the “mice showing the straub tail response” value (Male CD-1 mice; oral doses up to 100 mg/kg) of the same molecule?
Answer: none

Question: What about the “Loss Pinna, number of animals responding (N=2)” value (“Loss Pinna, number” for short) (Male CD-1 mice; oral, 1 mg/kg) of the same molecule?
Answer: 0

Question: And the “Muscle Rigidity, number of animals responding (N=2)” value (“Muscle Rigidity, number” below) (Male CD-1 mice; oral, 1 mg/kg)?
Answer: 0

Question: What about the “Straub Tail Effect, number of animals responding (N=2)” value (“Straub Tail Effect, number” below) (Male CD-1 mice; oral, 1 mg/kg) of the same molecule?
Answer: 0

Question: And the “Loss Pinna, number” value (Male CD-1 mice; oral, 3 mg/kg)?
Answer: 0

Question: And the “Muscle Rigidity, number” value (Male CD-1 mice; oral, 3 mg/kg)?
Answer: 0

Question: And the “Straub Tail Effect, number” value (Male CD-1 mice; oral, 3 mg/kg)?
Answer: 0

Question: What about the “Loss Pinna, number” value (Male CD-1 mice; oral, 10 mg/kg) of the same molecule?
Answer: 0

Question: What about the “Muscle Rigidity, number” value (Male CD-1 mice; oral, 10 mg/kg) of the same molecule?
Answer: 0

Question: And the “Straub Tail Effect, number” value (Male CD-1 mice; oral, 10 mg/kg)?
Answer: 0

Question: And the “Loss Pinna, number” value (Male CD-1 mice; oral, 30 mg/kg)?
Answer: 0

Question: What about the “Muscle Rigidity, number” value (Male CD-1 mice; oral, 30 mg/kg) of the same molecule?
Answer: 0

Question: What about the “Straub Tail Effect, number” value (Male CD-1 mice; oral, 30 mg/kg) of the same molecule?
Answer: 0

Question: And the “Loss Pinna, number” value (Male CD-1 mice; oral, 100 mg/kg)?
Answer: 0

Question: What about the “Muscle Rigidity, number” value (Male CD-1 mice; oral, 100 mg/kg) of the same molecule?
Answer: 1

Question: What about the “Straub Tail Effect, number” value (Male CD-1 mice; oral, 100 mg/kg) of the same molecule?
Answer: 0

Question: And the “Loss Pinna, number” value (Male CD-1 mice; oral, 300 mg/kg)?
Answer: 0

Question: And the “Muscle Rigidity, number” value (Male CD-1 mice; oral, 300 mg/kg)?
Answer: 1

Question: And the “Straub Tail Effect, number” value (Male CD-1 mice; oral, 300 mg/kg)?
Answer: 1

Question: And the “lowest dose causing a detectable response in the straub test” value (Male CD-1 mice; oral, highest dose tested)?
Answer: 300 mg/kg

Question: And the AUC [3]?
Answer: 210 ng·h/mL

Question: What about the AUC(0-inf) [3] of the same molecule?
Answer: 218 ng·h/mL

Question: And the MRT last [3]?
Answer: 47.7 min

Question: And the clearance [3]?
Answer: 77.9 ± 14.4 mL/min/kg

Question: What about the Cmax ([3]; read-out: Cmax) of the same molecule?
Answer: 445 ± 83.6 ng/mL

Question: What about the half-life ([3]; read-out: T1/2(z)) of the same molecule?
Answer: 62.2 ± 5.17 min

Question: What about the Vd ([3]; read-out: Vss) of the same molecule?
Answer: 4.68 ± 0.938 L/kg

Question: And the Ki (human mu opioid receptor)?
Answer: 1900 nM

Question: What about the “oral dose at which maximal analgesia was obtained” value (mice) of the same molecule?
Answer: 100 mg/kg

Question: And the “respiratory depression compared to oxycodone” value (male (CD1) mice; listed as PEG-6-O-hydroxycodone)?
Answer: produces less respiratory depression than oxycodone

Question: And the “respiratory depression compared to oxycodone” value (male (CD1) mice; [4])?
Answer: less respiratory depression
